Assay results as given in patent US12077503B2, “Substituted cyclic amides and their use as herbicides” (FMC CORPORATION, priority 2015, dated 2024).

Assays:
Assay type in all cases: in vivo
[1] = test system: velvetleaf (Abutilon theophrasti); assay: Test G Pre-Emergence Protocol; settings: Abutilon theophrasti, pre-emergence, 312 h, evaluated after 13 days
Method in brief: (§1)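 Glasshouse pre-emergence test: soil-sown seeds, sprayed after 1 d at 15.625, 62.5 or 250 g/ha. Conditions 24/16° C day/night, 14 h light, 65% humidity, watering twice daily. Rating 13 d post-spray (100 = total damage).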

[2] = test system: giant foxtail (Setaria faberi); assay: Test G Pre-Emergence Protocol; settings: Setaria faberi, pre-emergence, 312 h, evaluated after 13 days
Method in brief: as §1

[3] = test system: barnyardgrass (Echinochloa crus-galli); assay: Test G Pre-Emergence Protocol; settings: Echinochloa crus-galli, pre-emergence, 312 h, evaluated after 13 days
Method in brief: as §1

[4] = test system: ivy-leaved morning glory (Ipomoea hederacea); assay: Test G Pre-Emergence Protocol; settings: Ipomoea, pre-emergence, 312 h, evaluated after 13 days
Method in brief: as §1

corn (Zea mays) [5] = assay: Test G Pre-Emergence Protocol; settings: Zea mays, pre-emergence, 312 h, evaluated after 13 days
Method in brief: as §1

[6] = test system: redroot pigweed (Amaranthus retroflexus); assay: Test G Pre-Emergence Protocol; settings: Amaranthus retroflexus, pre-emergence, 312 h, evaluated after 13 days
Method in brief: as §1

[7] = test system: velvetleaf (Abutilon theophrasti); assay: Test G Post-Emergence Protocol; settings: Abutilon theophrasti, post-emergence, 312 h
Method in brief: (§2)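 Scores run 0 (no damage) to 100 (total damage) and were taken 13 days after spraying. Plants had been raised in pots for 8 days under glasshouse control (24/16 °C, 14 h photoperiod, 65% humidity) and then treated at 15.625, 62.5 or 250 g/ha.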

[8] = test system: giant foxtail (Setaria faberi); assay: Test G Post-Emergence Protocol; settings: Setaria faberi, post-emergence, 312 h
Method in brief: as §2

[9] = test system: barnyardgrass (Echinochloa crus-galli); assay: Test G Post-Emergence Protocol; settings: Echinochloa crus-galli, post-emergence, 312 h
Method in brief: as §2

[10] = test system: ivy-leaved morning glory (Ipomoea hederacea); assay: Test G Post-Emergence Protocol; settings: Ipomoea, post-emergence, 312 h
Method in brief: as §2

corn (Zea mays) [11] = assay: Test G Post-Emergence Protocol; settings: Zea mays, post-emergence, 312 h
Method in brief: as §2

[12] = test system: redroot pigweed (Amaranthus retroflexus); assay: Test G Post-Emergence Protocol; settings: Amaranthus retroflexus, post-emergence, 312 h
Method in brief: as §2

`CN1C[C@H](c2ccc(C(F)(F)F)cc2)[C@@H](C(=O)Nc2ccc(F)c(F)c2)C1=O` (racemic) [Compound 1412] was tested, and the pest or weed control at 15.625 g/ha ([1]; 15.625 g ai/ha, read-out: Velvetleaf damage rating (100=total damage to plant; 0=no damage to plant)) was 0%, the pest or weed control at 62.5 g/ha ([1]; 62.5 g ai/ha, 100=total damage to plant, 0=no damage to plant, read-out: plant damage rating, Velvetleaf) was 0% and the pest or weed control at 250 g/ha ([1]; 250 g ai/ha, read-out: Velvetleaf damage rating (100=total damage to plant; 0=no damage to plant)) was 10%. For the same molecule, the pest or weed control at 15.625 g/ha ([2]; 15.625 g ai/ha, read-out: Foxtail, Giant damage rating (100=total damage to plant; 0=no damage to plant)) was 10%, the pest or weed control at 62.5 g/ha ([2]; 62.5 g ai/ha, 100=total damage to plant, 0=no damage to plant, read-out: plant damage rating, Foxtail, Giant) was 50% and the pest or weed control at 250 g/ha ([2]; 250 g ai/ha, read-out: Foxtail, Giant damage rating (100=total damage to plant; 0=no damage to plant)) was 80%. For the same molecule, the pest or weed control at 15.625 g/ha ([3]; 15.625 g ai/ha, read-out: Barnyard grass damage rating (100=total damage to plant; 0=no damage to plant)) was 0%, the pest or weed control at 62.5 g/ha ([3]; 62.5 g ai/ha, 100=total damage to plant, 0=no damage to plant, read-out: plant damage rating, Barnyardgrass) was 30% and the pest or weed control at 250 g/ha ([3]; 250 g ai/ha, read-out: Barnyardgrass damage rating (100=total damage to plant; 0=no damage to plant)) was 60%. The pest or weed control at 15.625 g/ha ([4]; 15.625 g ai/ha, read-out: Morning-glory, Ivy-leaved damage rating (100=total damage to plant; 0=no damage to plant)) was 0%, the pest or weed control at 62.5 g/ha ([4]; 62.5 g ai/ha, 100=total damage to plant, 0=no damage to plant, read-out: plant damage rating, Morningglory, Ivy-leaved) was 0% and the pest or weed control at 250 g/ha ([4]; 250 g ai/ha, read-out: Morningglory, Ivy-leaved damage rating (100=total damage to plant; 0=no damage to plant)) was 0%. The plant injury at 15.625 g/ha (corn (Zea mays) [5]; 15.625 g ai/ha, read-out: Corn damage rating (100=total damage to plant; 0=no damage to plant)) was 0%, the plant injury at 62.5 g/ha (corn (Zea mays) [5]; 62.5 g ai/ha, 100=total damage to plant, 0=no damage to plant, read-out: plant damage rating, Corn) was 10% and the plant injury at 250 g/ha (corn (Zea mays) [5]; 250 g ai/ha, read-out: Corn damage rating (100=total damage to plant; 0=no damage to plant)) was 10%. For the same molecule, the pest or weed control at 15.625 g/ha ([6]; 15.625 g ai/ha, read-out: Pigweed, Redroot damage rating (100=total damage to plant; 0=no damage to plant)) was 20%, the pest or weed control at 62.5 g/ha ([6]; 62.5 g ai/ha, 100=total damage to plant, 0=no damage to plant, read-out: plant damage rating, Pigweed, Redroot) was 20% and the pest or weed control at 250 g/ha ([6]; 250 g ai/ha, read-out: Pigweed, Redroot damage rating (100=total damage to plant; 0=no damage to plant)) was 10%. For the same molecule, the pest or weed control at 15.625 g/ha ([7]; 15.625 g ai/ha, evaluated after 13 days (100=total damage to plant; 0=no damage to plant), read-out: Velvetleaf damage rating) was 0%, the pest or weed control at 62.5 g/ha ([7]; 62.5 g ai/ha, evaluated after 13 days, read-out: Velvetleaf damage rating (100=total damage to plant; 0=no damage to plant)) was 40% and the pest or weed control at 250 g/ha ([7]; 250 g ai/ha, evaluated after 13 days, read-out: damage to plant, Velvetleaf (100=total damage to plant; 0=no damage to plant)) was 40%. It also gave a pest or weed control at 15.625 g/ha ([8]; 15.625 g ai/ha, evaluated after 13 days (100=total damage to plant; 0=no damage to plant), read-out: Foxtail, Giant damage rating) of 0%, a pest or weed control at 62.5 g/ha ([8]; 62.5 g ai/ha, evaluated after 13 days, read-out: Foxtail, Giant damage rating (100=total damage to plant; 0=no damage to plant)) of 60% and a pest or weed control at 250 g/ha ([8]; 250 g ai/ha, evaluated after 13 days, read-out: damage to plant, Foxtail, Giant (100=total damage to plant; 0=no damage to plant)) of 70%. For the same molecule, the pest or weed control at 15.625 g/ha ([9]; 15.625 g ai/ha, evaluated after 13 days (100=total damage to plant; 0=no damage to plant), read-out: Barnyardgrass damage rating) was 0%, the pest or weed control at 62.5 g/ha ([9]; 62.5 g ai/ha, evaluated after 13 days, read-out: Barnyardgrass damage rating (100=total damage to plant; 0=no damage to plant)) was 50% and the pest or weed control at 250 g/ha ([9]; 250 g ai/ha, evaluated after 13 days, read-out: damage to plant, Barnyardgrass (100=total damage to plant; 0=no damage to plant)) was 60%. For the same molecule, the pest or weed control at 15.625 g/ha ([10]; 15.625 g ai/ha, evaluated after 13 days (100=total damage to plant; 0=no damage to plant), read-out: Morningglory, Ivy-leaved damage rating) was 0%, the pest or weed control at 62.5 g/ha ([10]; 62.5 g ai/ha, evaluated after 13 days, read-out: Morningglory, Ivy-leaved damage rating (100=total damage to plant; 0=no damage to plant)) was 0% and the pest or weed control at 250 g/ha ([10]; 250 g ai/ha, evaluated after 13 days, read-out: damage to plant, Morningglory, Ivy-leaved (100=total damage to plant; 0=no damage to plant)) was 20%. For the same molecule, the plant injury at 15.625 g/ha (corn (Zea mays) [11]; 15.625 g ai/ha, evaluated after 13 days (100=total damage to plant; 0=no damage to plant), read-out: Corn damage rating) was 20%, the plant injury at 62.5 g/ha (corn (Zea mays) [11]; 62.5 g ai/ha, evaluated after 13 days, read-out: Corn damage rating (100=total damage to plant; 0=no damage to plant)) was 10% and the plant injury at 250 g/ha (corn (Zea mays) [11]; 250 g ai/ha, evaluated after 13 days, read-out: damage to plant, Corn (100=total damage to plant; 0=no damage to plant)) was 10%. The pest or weed control at 15.625 g/ha ([12]; 15.625 g ai/ha, evaluated after 13 days (100=total damage to plant; 0=no damage to plant), read-out: Pigweed, Redroot damage rating) was 30%, the pest or weed control at 62.5 g/ha ([12]; 62.5 g ai/ha, evaluated after 13 days, read-out: Pigweed, Redroot damage rating (100=total damage to plant; 0=no damage to plant)) was 40% and the pest or weed control at 250 g/ha ([12]; 250 g ai/ha, evaluated after 13 days, read-out: damage to plant, Pigweed, Redroot (100=total damage to plant; 0=no damage to plant)) was 40%.
